Here are results for one compound from patent US8101766B2, “Crystalline form of a biphenyl compound” (Theravance, Inc., priority 2004, dated 2012).

One assay deals with T1, cM5 receptor (Pan troglodytes, UniProt Q5IS53).
T1 construct: expressed in transfected cells
T1 sequence (Q5IS53 1-532): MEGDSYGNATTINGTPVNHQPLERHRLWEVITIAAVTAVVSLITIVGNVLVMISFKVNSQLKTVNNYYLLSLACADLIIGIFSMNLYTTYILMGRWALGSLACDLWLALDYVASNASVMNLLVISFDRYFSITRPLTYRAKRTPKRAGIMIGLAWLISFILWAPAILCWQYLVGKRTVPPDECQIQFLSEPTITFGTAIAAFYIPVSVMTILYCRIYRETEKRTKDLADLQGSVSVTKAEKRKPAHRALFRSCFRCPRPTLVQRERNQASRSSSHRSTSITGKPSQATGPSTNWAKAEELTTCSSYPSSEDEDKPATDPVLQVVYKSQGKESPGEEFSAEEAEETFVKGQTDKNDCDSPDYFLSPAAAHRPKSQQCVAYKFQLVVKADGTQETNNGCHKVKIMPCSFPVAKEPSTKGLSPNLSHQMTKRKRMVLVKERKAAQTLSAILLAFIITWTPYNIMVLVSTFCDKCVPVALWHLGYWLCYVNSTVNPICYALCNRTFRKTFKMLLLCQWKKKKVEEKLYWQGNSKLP
Briefly: Blockade of agonist-mediated calcium release via FLIPR assay (cM5). In kind it is cell-based, chimpanzee. As to conditions: CHO cells stably expressing cM5. An excerpt:
B. Blockade of Agonist-Mediated Calcium Release Via FLIPR Assays
Muscarinic receptor subtypes (M1, M3 and M5 receptors), which couple to Gq proteins, activate the phospholipase C (PLC) pathway upon agonist binding to the receptor. As a result, activated PLC hydrolyzes phosphatyl inositol diphosphate (PIP2) to diacylglycerol (DAG) and phosphatidyl-1,4,5-triphosphate (IP3), which in turn generates calcium release from intracellular stores, i.e., endoplasmic and sarcoplasmic reticulum. […] This fluorescence event is measured in real time by the FLIPR, which detects the change in fluorescence from a monolayer of cells cloned with human M1 and M3, and chimpanzee M5 receptors. Antagonist potency can be determined by the ability of antagonists to inhibit agonist-mediated increases in intracellular calcium. […]
To determine antagonist potency, the dose-dependent stimulation of intracellular Ca^2+ release for oxotremorine was first determined so that antagonist potency can later be measured against oxotremorine stimulation at an EC90 concentration. […]
The parameters used for the FLIPR were: exposure length of 0.4 seconds, laser strength of 0.5 watts, excitation wavelength of 488 nm, and emission wavelength of 550 nm. Baseline was determined by measuring the change in fluorescence for 10 seconds prior to addition of agonist. […]

A further assay has as its target β2 adrenergic receptor (Homo sapiens, UniProt P07550). The experiment in a line: Radioligand binding assay for human β2 adrenergic receptor. Further details: expressed in transfected cells. As to conditions: radioligand displacement, CHO cell membranes. The method, then:
The cell monolayer was lifted with 2 mM EDTA in PBS. […] All membranes were stored frozen in aliquots at −80° C. or used immediately.
In general terms: Displacement assays read how much labelled ligand stays bound in the presence of the test substance.

β2 adrenergic receptor, sequence (P07550 whole entry): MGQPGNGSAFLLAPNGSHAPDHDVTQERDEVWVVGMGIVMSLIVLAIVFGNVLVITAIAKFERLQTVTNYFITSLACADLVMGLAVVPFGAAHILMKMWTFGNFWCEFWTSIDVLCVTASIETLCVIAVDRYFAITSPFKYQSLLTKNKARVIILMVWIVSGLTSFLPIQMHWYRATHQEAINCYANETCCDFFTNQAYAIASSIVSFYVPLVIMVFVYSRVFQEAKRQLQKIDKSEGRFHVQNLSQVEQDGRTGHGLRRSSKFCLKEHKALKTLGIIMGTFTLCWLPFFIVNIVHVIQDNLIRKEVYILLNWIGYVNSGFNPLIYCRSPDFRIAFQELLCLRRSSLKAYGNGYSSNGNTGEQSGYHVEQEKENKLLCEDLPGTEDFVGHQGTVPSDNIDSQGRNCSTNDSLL

Broadly, the Ki is the dissociation constant of the complex between target and ligand, obtained from inhibition or displacement. For the compound `COc1cc(NC(=O)CCN2CCC(OC(=O)Nc3ccccc3-c3ccccc3)CC2)c(Cl)cc1CNC[C@H](O)c1ccc(O)c2[nH]c(=O)ccc12` [compound of formula I, biphenyl-2-ylcarbamic acid 1-[2-(2-chloro-4-{[(R)-2-hydroxy-2-(8-hydroxy-2-oxo-1,2-dihydroquinolin-5-yl)ethylamino]methyl}-5-methoxyphenylcarbamoyl)ethyl]piperidin-4-yl ester], the Ki at cM5 receptor and on β2 adrenergic receptor was below 10 nM each time.
